The values below come from the supplement of paper PMC10307832.

Assay in all cases: relative viability (nuclei count vs DMSO), 5 days (fraction); higher = more cells survive
Compound in assay [1]: C1=CC=C(C(=C1)C2=CC=C(C=C2)C3=CSC4=C3C(=C(C(=O)N4)C#N)O)O + CC(=O)Nc1cccc(-n2c(=O)n(C3CC3)c(=O)c3c(Nc4ccc(I)cc4F)n(C)c(=O)c(C)c32)c1 [Trametinib] (partner 0.02 µM)
A digest of the protocol: (§1)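 For relative viability, nuclei counts in treated wells were divided by those in vehicle wells. Lung cancer cell lines had been pin-tool dosed in 1536-well plates the day after seeding and cultured for 5 days, then fixed and stained in one step (final 0.05% Triton X-100, 1% formaldehyde, 1 ug/ml Hoechst) and imaged at 4×. Doses were one drug alone or a fixed anchor-drug dose plus five library-drug doses (not always all listed) in √10 steps, and values are duplicate-plate medians.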

Compound in the assay “Ricolinostat + Olaparib”: O=C(CCCCCCNC(=O)c1cnc(N(c2ccccc2)c2ccccc2)nc1)NO [Ricolinostat] + O=C(c1cc(Cc2n[nH]c(=O)c3ccccc23)ccc1F)N1CCN(C(=O)C2CC2)CC1 [Olaparib] (partner 8 µM)
A digest of the protocol:
as §1

Compound in assay [2]: O=C(CCCCCCNC(=O)c1cnc(N(c2ccccc2)c2ccccc2)nc1)NO [Ricolinostat] + N=C(N)NC(=N)NCCc1ccccc1 [Phenformin] (partner 250 µM)
A digest of the protocol:
as §1

Compound in assay [3]: O=C(CCCCCCNC(=O)c1cnc(N(c2ccccc2)c2ccccc2)nc1)NO [Ricolinostat] + CC1(C)CCC(c2ccc(Cl)cc2)=C(CN2CCN(c3ccc(C(=O)NS(=O)(=O)c4ccc(N[C@H](CCN5CCOCC5)CSc5ccccc5)c(S(=O)(=O)C(F)(F)F)c4)cc3)CC2)C1 [Navitoclax] (partner 0.5 µM)
A digest of the protocol:
as §1

SW 1573: the relative viability amounted to 0.608 in assay [1] (first compound 0.08 µM); 0.522 in assay [1] (first compound 0.253 µM); 0.654 in assay [1] (first compound 0.8 µM); 0.659 in assay [1] (first compound 2.53 µM); 0.434 in assay [1] (first compound 8 µM); 0.436 in the assay with Ricolinostat + Olaparib (first compound 0.08 µM). The relative viability with Ricolinostat + Olaparib (first compound 0.253 µM) amounted to 0.508; with Ricolinostat + Olaparib (first compound 0.8 µM), 0.534; with Ricolinostat + Olaparib (first compound 2.53 µM), 0.404; in assay [2] (first compound 0.08 µM), 0.316; in assay [2] (first compound 0.253 µM), 0.393; in assay [2] (first compound 0.8 µM), 0.474. In addition, the relative viability in assay [2] (first compound 2.53 µM) was found to be 0.551; in assay [3] (first compound 0.08 µM), 0.807; in assay [3] (first compound 0.253 µM), 0.993; in assay [3] (first compound 0.8 µM) it was 0.901; in assay [3] (first compound 2.53 µM) it was 1.01.

BEN: the relative viability in assay [1] (first compound 0.08 µM) is 1.13; in assay [1] (first compound 0.253 µM), 1.08; in assay [1] (first compound 0.8 µM), 1.01; in assay [1] (first compound 2.53 µM), 0.967; in assay [1] (first compound 8 µM) it was 1.02; with Ricolinostat + Olaparib (first compound 0.08 µM), 1.05. For the same cell line, the relative viability with Ricolinostat + Olaparib (first compound 0.253 µM) worked out at 0.995; in the assay with Ricolinostat + Olaparib (first compound 0.8 µM) it was 0.999; with Ricolinostat + Olaparib (first compound 2.53 µM) it was 1.02; in assay [2] (first compound 0.08 µM), 0.321; in assay [2] (first compound 0.253 µM) it was 0.283; in assay [2] (first compound 0.8 µM), 0.228. Moreover, the relative viability was 0.225 in assay [2] (first compound 2.53 µM); 0.0553 in assay [3] (first compound 0.08 µM); 0.084 in assay [3] (first compound 0.253 µM); 0.0569 in assay [3] (first compound 0.8 µM); 0.0652 in assay [3] (first compound 2.53 µM).

As for RERF-LC-KJ, the relative viability stood at 0.988 in assay [1] (first compound 0.08 µM); 0.908 in assay [1] (first compound 0.253 µM); 0.917 in assay [1] (first compound 0.8 µM); 0.878 in assay [1] (first compound 2.53 µM); 0.834 in assay [1] (first compound 8 µM); 0.897 in the assay with Ricolinostat + Olaparib (first compound 0.08 µM). Also, the relative viability in the assay with Ricolinostat + Olaparib (first compound 0.253 µM) was 0.894; with Ricolinostat + Olaparib (first compound 0.8 µM) it was 0.773; with Ricolinostat + Olaparib (first compound 2.53 µM), 0.582; in assay [2] (first compound 0.08 µM) it was 0.452; in assay [2] (first compound 0.253 µM), 0.372; in assay [2] (first compound 0.8 µM), 0.406. Besides, the relative viability in assay [2] (first compound 2.53 µM) turned out to be 0.374; in assay [3] (first compound 0.08 µM) it was 0.831; in assay [3] (first compound 0.253 µM), 0.993; in assay [3] (first compound 0.8 µM), 0.841; in assay [3] (first compound 2.53 µM), 0.787.

For UMC-11, the relative viability is 0.649 in assay [1] (first compound 0.253 µM); 0.695 in assay [1] (first compound 0.8 µM); 0.658 in assay [1] (first compound 2.53 µM); 0.551 in assay [1] (first compound 8 µM); 0.345 in the assay with Ricolinostat + Olaparib (first compound 0.08 µM); 0.339 in the assay with Ricolinostat + Olaparib (first compound 0.253 µM). The relative viability with Ricolinostat + Olaparib (first compound 0.8 µM) was 0.323; in the assay with Ricolinostat + Olaparib (first compound 2.53 µM), 0.198; in assay [2] (first compound 0.08 µM), 0.273; in assay [2] (first compound 0.253 µM), 0.344; in assay [2] (first compound 0.8 µM) it was 0.271; in assay [2] (first compound 2.53 µM) it was 0.194. Also, the relative viability in assay [3] (first compound 0.08 µM) came out at 0.31; in assay [3] (first compound 0.253 µM) it was 0.343; in assay [3] (first compound 0.8 µM), 0.267; in assay [3] (first compound 2.53 µM) it was 0.158.

Take HOP-62: the relative viability in assay [1] (first compound 0.08 µM) is 0.38; in assay [1] (first compound 0.253 µM), 0.431; in assay [1] (first compound 0.8 µM) it was 0.41; in assay [1] (first compound 2.53 µM), 0.378; in assay [1] (first compound 8 µM) it was 0.337; with Ricolinostat + Olaparib (first compound 0.08 µM), 0.516. In addition, the relative viability in the assay with Ricolinostat + Olaparib (first compound 0.253 µM) was 0.408; with Ricolinostat + Olaparib (first compound 0.8 µM), 0.31; in the assay with Ricolinostat + Olaparib (first compound 2.53 µM) it was 0.394; in assay [2] (first compound 0.08 µM), 0.586; in assay [2] (first compound 0.253 µM), 0.657; in assay [2] (first compound 0.8 µM), 0.623. Besides, the relative viability came to 0.503 in assay [2] (first compound 2.53 µM); 0.887 in assay [3] (first compound 0.08 µM); 1.01 in assay [3] (first compound 0.253 µM); 1.03 in assay [3] (first compound 0.8 µM); 1.08 in assay [3] (first compound 2.53 µM).

As to NCI-H2023, the relative viability in assay [1] (first compound 0.08 µM) was found to be 0.364; in assay [1] (first compound 0.253 µM), 0.584; in assay [1] (first compound 0.8 µM), 0.708; in assay [1] (first compound 2.53 µM) it was 0.535; in assay [1] (first compound 8 µM), 0.466; in the assay with Ricolinostat + Olaparib (first compound 0.08 µM), 0.485. Besides, the relative viability in the assay with Ricolinostat + Olaparib (first compound 0.253 µM) worked out at 0.447; in the assay with Ricolinostat + Olaparib (first compound 0.8 µM), 0.407; with Ricolinostat + Olaparib (first compound 2.53 µM) it was 0.239; in assay [2] (first compound 0.253 µM), 0.403; in assay [2] (first compound 0.8 µM), 0.382; in assay [2] (first compound 2.53 µM), 0.344. The relative viability in assay [3] (first compound 0.08 µM) was 0.849; in assay [3] (first compound 0.253 µM) it was 1.01; in assay [3] (first compound 0.8 µM), 0.995; in assay [3] (first compound 2.53 µM), 0.906.

NCI-H596: the relative viability in assay [1] (first compound 0.08 µM) is 0.73; in assay [1] (first compound 0.253 µM), 0.827; in assay [1] (first compound 0.8 µM) it was 0.891; in assay [1] (first compound 2.53 µM), 0.695; in assay [1] (first compound 8 µM), 0.747; with Ricolinostat + Olaparib (first compound 0.08 µM), 0.699. Besides, the relative viability with Ricolinostat + Olaparib (first compound 0.253 µM) came out at 0.676; with Ricolinostat + Olaparib (first compound 0.8 µM) it was 0.693; in the assay with Ricolinostat + Olaparib (first compound 2.53 µM), 0.526; in assay [2] (first compound 0.08 µM), 0.836; in assay [2] (first compound 0.253 µM), 0.749; in assay [2] (first compound 0.8 µM) it was 0.7. Also, the relative viability in assay [2] (first compound 2.53 µM) was 0.694; in assay [3] (first compound 0.08 µM) it was 0.951; in assay [3] (first compound 0.253 µM), 0.954; in assay [3] (first compound 0.8 µM), 0.858; in assay [3] (first compound 2.53 µM), 0.887.

As for LOU-NH91, the relative viability was determined as 0.778 in assay [1] (first compound 0.08 µM); 0.865 in assay [1] (first compound 0.253 µM); 0.794 in assay [1] (first compound 0.8 µM); 0.753 in assay [1] (first compound 2.53 µM); 0.705 in assay [1] (first compound 8 µM); 0.883 with Ricolinostat + Olaparib (first compound 0.253 µM). The relative viability stood at 0.905 with Ricolinostat + Olaparib (first compound 0.8 µM); 0.858 with Ricolinostat + Olaparib (first compound 2.53 µM); 0.516 in assay [2] (first compound 0.08 µM); 0.726 in assay [2] (first compound 0.253 µM); 0.713 in assay [2] (first compound 0.8 µM); 0.744 in assay [2] (first compound 2.53 µM). Also, the values for the relative viability in assay [3] (first compound 0.253 µM), in assay [3] (first compound 0.8 µM) and in assay [3] (first compound 2.53 µM) were 0.777, 0.642 and 0.6, respectively.
